Laboratory results published in US5498795A, “Acetylenes disubstituted with hydroxyaryl and aryl or heteroaryl groups having retinoid-like biological activity” (Allergan, Inc., priority 1994, dated 1996).

Tested on: ornithine decarboxylase (ODC)
Experiment: ODC assay: inhibition of TPA induction of ornithine decarboxylase
Type: in vivo
From the text: The retinoic acid-like activity of these compounds is confirmed through the classic measure of retinoic acid activity involving the effects of retinoic acid on ornithine decarboxylase. The original work on the correlation between retinoic acid and decrease in cell proliferation was done by Verma & Boutwell, Cancer Research, 1977, 37,2196-2201. That reference discloses that ornithine decarboxylase (ODC) activity increased precedent to polyamine biosynthesis. It has been established elsewhere that increases in polyamine synthesis can be correlated or associated with cellular proliferation. Thus, if ODC activity could be inhibited, cell hyperproliferation could be modulated. Although all cases for ODC activity increases are unknown, it is known that 12-0-tetradecanoylphorbol-13-acetate (TPA) induces ODC activity. Retinoic acid inhibits this induction of ODC activity by TPA. […] Activity of exemplary compounds of the present invention in the above-described ODC assay is disclosed in Table 2 which provides either […] (or other measured per cent inhibition at the indicated concentration) for the respective exemplary compound.

SMILES | % of inhib (conc 100) | % of inhib (conc 300)
CC(C)(C)c1ccc(C#Cc2ccc(C(=O)O)cn2)cc1O [Compound 20, 6-[2-[[2-t-Butyl-1-hydroxy]-5-phenyl]ethyn-1-yl]nicotinic acid] | 64% | 
O=C(O)c1ccc(C#Cc2ccc(C34CC5CC(CC(C5)C3)C4)c(O)c2)nc1 [Compound 23, 6-[2-[[2-(1-adamantyl)-1-hydroxy]-5-phenyl]-ethyn-1-yl]nicotinic acid] |  | 55%
